Source: patent publication US20210330611A1, “THERAPY FOR NEUROLOGICAL DISEASES/DISORDERS” (priority 2020, published 2021)
Structures can show the parent of a compound that is named as a salt. Where two headings read alike, the source gives them in different places.

Assays:
[1] = system: fibrin-induced microglia activation; assay: Image-based assay of fibrin-induced microglia activation (HTS and dose response); format: cell-based, rat; conditions: for IC50 / inhibition at 10 µM: Rattus norvegicus, Microglia; for inhibition at 10 µM: read-out: Fibrin % inhibition
[2] = system: LPS-induced microglia activation; assay: Image-based assay of LPS-induced microglia activation (HTS and dose response); format: cell-based, rat; conditions: Rattus norvegicus, Microglia; for inhibition at 10 µM: read-out: LPS % inhibition
[3] = system: fibrin- and LPS-induced microglia activation; assay: cells; format: cell-based, rat; conditions: for inhibition at 10 µM: Rattus norvegicus
[4] = in vitro; conditions: rat, Cell Toxicity IC50 (uM) [cFib assay]
[5] = in vitro; conditions: rat
[6] = system: primary rat microglia; assay: Cell toxicity (dead cells, size <150 μm2) in LPS assay; conditions: for LPS % cell toxicity: primary microglia HTS, LPS stimulation, decreased size (<150 μm^2) as marker of toxicity; for IC50: read-out: Cell Toxicity IC50 (uM) [LPS assay], LPS assay
[7] = system: primary rat microglia; assay: Cell toxicity (dead cells, size <150 μm2) in coated fibrin (cFib) assay; conditions: for Fibrin % cell toxicity: primary microglia HTS, fibrin stimulation, decreased size (<150 μm^2) as marker of toxicity;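 for Fibrin % cell toxicity: share of dead cells sized under 150 µm2 at 10 µM in fibrin-stimulated microglia HTS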
[8] = 48 h, Table 1, dose response 0.001-20 μM, triplicates, primary rat microglia, 48 h, read-out: Fibrin IC50
[9] = dose response, fibrin-induced microglia activation, read-out: Fibrin IC50
[10] = fibrin-induced microglia activation, dose response, read-out: Fibrin IC50 (uM) (Suppl. Table 7)
[11] = primary microglia HTS, fibrin stimulation, increased cell size (>800 μm^2) as marker of activation
[12] = 48 h, Table 1, dose response 0.001-20 μM, triplicates, primary rat microglia, 48 h, read-out: LPS IC50
[13] = 48 h, primary microglia HTS, LPS stimulation, increased cell size (>800 μm^2) as marker of activation
[14] = LPS-induced microglia activation, dose response, read-out: LPS IC50 (uM) (Suppl. Table 7)
[15] = dose response, LPS-induced microglia activation, read-out: LPS IC50
[16] = HTS of 1907 compounds, quadrant by fibrin and LPS inhibition
[17] = Microglia, HTS hit classification, read-out: Hit
[18] = hit classification in microglia HTS, read-out: Cherry-picked Hit (Suppl. Table 7)
[19] = quadrant by fibrin and LPS inhibition in HTS of 1907 compounds
[20] = Table 3, read-out: Fibrin IC50 (uM) (Suppl. Table 7)
[21] = Table 3, read-out: LPS IC50 (uM) (Suppl. Table 7)
[22] = Microglia, Table 3, read-out: Cherry-picked Hit (Suppl. Table 7)

SMILES	IC50 [1, 8] [µM]	IC50 [1, 9] [µM]	IC50 [1, 10] [µM]	inhibition at 10 µM [1, 11] [%]	IC50 [2, 12] [µM]	inhibition at 10 µM [2, 13] [%]	IC50 [2, 14] [µM]	IC50 [2, 15] [µM]	Quadrant (FIG. 5b) [3, 16]	inhibition at 10 µM [3, 17] [%]	Quadrant (FIG. 5b) ([3]; Table 1, screen at 10 μM)	Quadrant (FIG. 5b) [3, 19]	IC50 ([4]; cFib assay) [µM]	IC50 [5] [µM]	LPS % cell toxicity [6] [%]	Fibrin % cell toxicity [7] [%]	IC50 [1, 20] [µM]	IC50 [2, 21] [µM]	inhibition at 10 µM [3, 22] [%]	Quadrant (FIG. 5b) ([3]; Table 3, screen at 10 μM)	also measured
CC(CCc1ccc(O)cc1)NCC(O)c1ccc(O)cc1 (stereo not drawn) [Ractopamine hydrochloride, reference compound]	20	20	20	50	> 20	39	> 20	> 20	Q3	> 50	Q3	Q3	> 20	> 20	0	1	–	–	–	–	inhibition at 10 µM [3, 18]: > 50%
CN(C)CCCOc1nn(Cc2ccccc2)c2ccccc12 [Benzydamine hydrochloride, reference compound]	6	6	6	75	3	102	3	3	Q2	> 50	Q2	Q2	20	8	6	1	–	–	–	–	inhibition at 10 µM [3, 18]: > 50%
O=C(OOC(=O)c1ccccc1)c1ccccc1 [Benzoyl peroxide, reference compound]	20	20	20	75	> 20	82	> 20	> 20	Q2	> 50	Q2	Q2	> 20	> 20	2	1	–	–	–	–	inhibition at 10 µM [3, 18]: > 50%
C[C@H](N)[C@H](O)c1ccc(O)c(O)c1 [Levonordefrin, reference compound]	0.9	0.9	0.9	70	> 20	36	> 20	> 20	Q3	> 50	Q3	Q3	> 20	> 20	0	1	0.9	> 20	> 50	Q3	Fibrin Selectivity [1]: 21; Fibrin Selectivity (LOG10) [1]: 1.33; IC50 ([4]; Table 3): > 20 µM; IC50 [6]: > 20 µM
C[C@H]1C[C@H]2[C@@H]3CCC4=CC(=O)C=C[C@]4(C)[C@@]3(F)[C@@H](O)C[C@]2(C)[C@@]1(O)C(=O)CO [Betamethasone, reference compound]	< 0.001	< 0.001	< 0.001	103	0.01	94	0.01	0.01	Q2	> 50	Q2	Q2	> 20	> 20	–	–	< 0.001	0.01	> 50	Q2	IC50 ([1]; Table 7, read-out: fib_IC50): 0.002 µM; inhibition at 10 µM ([1]; primary HTS, 10 μM, fibrin-stimulated primary microglia): -4%; IC50 ([2]; Table 7, read-out: LPS_IC50): 0.002 µM; inhibition at 10 µM ([2]; primary HTS, 10 μM, LPS-stimulated primary microglia): -9%; Quadrant (FIG. 5b) ([3]; Table 2, screen at 10 μM): Q2; Quadrant (FIG. 5b) ([3]; primary HTS, 10 μM): Q4; IC50 ([4]; Table 3): > 20 µM; IC50 [6]: > 20 µM; IC50 ([7]; Rattus norvegicus, Microglia, read-out: dead_IC50 (uM), Table 7, fibrin or LPS assay not specified): 2.08 µM
[H]/N=C(/NCCCCC)N/N=C/c1c[nH]c2ccc(OC)cc12 [Tegaserod maleate, reference compound]	1	1	1	100	19	86	19	19	Q2	> 50	Q2	Q2	> 20	> 20	2	2	1	19	> 50	Q2	Fibrin Selectivity [1]: 20; Fibrin Selectivity (LOG10) [1]: 1.29; IC50 ([4]; Table 3): > 20 µM; IC50 [6]: > 20 µM
CCCC(=O)O[C@]1(C(=O)CO)CC[C@H]2[C@@H]3CCC4=CC(=O)CC[C@]4(C)[C@H]3[C@@H](O)C[C@@]21C [Hydrocortisone butyrate, reference compound]	0.02	0.02	0.02	108	2	78	2	2	Q2	> 50	Q2	Q2	> 20	> 20	2	2	0.02	2	> 50	Q2	Fibrin Selectivity [1]: 89; Fibrin Selectivity (LOG10) [1]: 1.95; IC50 ([1]; Table 6, read-out: Fibrin IC50 (uM) (Suppl. Table 7)): 0.02 µM; IC50 ([1]; Table 7, read-out: fib_IC50): 0.071 µM; IC50 ([2]; Table 6, read-out: LPS IC50 (uM) (Suppl. Table 7)): 2 µM; IC50 ([2]; Table 7, read-out: LPS_IC50): 0.005 µM; Quadrant (FIG. 5b) ([3]; Table 2, screen at 10 μM): Q2; Activity ([3]; Table 7, fib = fibrin, LPS, tox = toxicity): fib/LPS; Quadrant (FIG. 5b) ([3]; microglia HTS, Table 6): Q2; IC50 ([4]; Table 3): > 20 µM; IC50 ([4]; cFib assay, Table 6): > 20 µM; IC50 [6]: > 20 µM; IC50 ([6]; Table 6): > 20 µM
